Read-outs that look alike come from different tables or passages of the source.

Format in all cases: biochemical
The target in one assay is HDAC2 (Homo sapiens (Human), UniProt Q92769). Nature of the assay: HDAC2 enzymatic assay. Conditions: selectivity profile; read-out: HDAC Enzyme IC50, HDAC 2. The procedure:
(§1) All enzymatic reactions were conducted in duplicate at room temperature for 17 hours in a 50 μl mixture containing HDAC assay buffer (50 mM Tris-HCl, pH 7.4, 137 mM NaCl, 2.7 mM KCl, 0.05% Tween 20, 5 μg BSA), an HDAC substrate, an HDAC enzyme, and a test compound. Compound dilution was prepared ten-fold higher than the final concentration of the compounds with 10% DMSO in HDAC assay buffer and 5 μl of the dilution was added to a 50 μl reaction so that the final concentration of DMSO is 1% in all of reactions. After enzymatic reactions, 50 μl of HDAC Developer was added to each well and the plate was incubated at room temperature for an additional 20 minutes. Fluorescence intensity was measured at an excitation of 360 nm and an emission of 460 nm using a Tecan Infinite M1000 or Biotek Synergy microplate reader.
(§2) The fluorescent intensity data were analyzed using the computer software, Graphpad Prism. In the absence of the compound, the fluorescent intensity (Ft) in each data set was defined as 100% activity. In the absence of HDAC, the fluorescent intensity (Fb) in each data set was defined as 0% activity. The percent activity in the presence of each compound was calculated according to the following equation: % activity=(F−Fb)/(Ft−Fb), where F=the fluorescent intensity in the presence of the compound.
(§3) The values of % activity versus a series of compound concentrations were then plotted using non-linear regression analysis of Sigmoidal dose-response curve generated with the equation Y=B+(T−B)/1+10((Log EC50−X)×Hill Slope), where Y=percent activity, B=minimum percent activity, T=maximum percent activity, X=logarithm of compound and Hill Slope=slope factor or Hill coefficient. The IC50 value was determined by the concentration causing a half-maximal percent activity.
(§4) HDAC1 enzymatic assays contained 0.5 ng HDAC1 and 10 uM of HDAC substrate. HDAC2 enzymatic assays contained 0.5 ng HDAC2 and 10 uM of HDAC substrate. HDAC3 enzymatic assays contained 0.4 ng HDAC3/NCOR2 and 10 uM of HDAC substrate. HDAC4 enzymatic assays contained 0.02 ng HDAC4 and 2 uM of HDAC substrate. HDAC5 enzymatic assays contained 0.5 ng HDAC5 and 2 uM of HDAC substrate. HDAC6 enzymatic assays contained 2 ng HDAC6 and 10 uM of HDAC substrate. HDAC7 enzymatic assays contained 0.05 ng HDAC7 and 2 uM of HDAC substrate. HDAC8 enzymatic assays contained 5 ng HDAC8 and 2 uM of HDAC substrate. HDAC9 enzymatic assays contained 1 ng HDAC9 and 2 uM of HDAC substrate. HDAC10 enzymatic assays contained 75 ng HDAC10 and 10 uM of HDAC substrate. HDAC11 enzymatic assays contained 5 ng HDAC11 and 2 uM of HDAC substrate.

Another assay addresses HDAC4 (Homo sapiens (Human), UniProt P56524). Description: HDAC4 enzymatic assay. The conditions noted are these: selectivity profile; read-out: HDAC Enzyme IC50, HDAC 4. The procedure: as §1, §2, §3, §4
The target in the next assay is HDAC10 (Homo sapiens (Human), UniProt Q969S8). Nature of the assay: HDAC10 enzymatic assay. Conditions: selectivity profile; read-out: HDAC Enzyme IC50, HDAC 10. How it is done:
as §1, §2, §3, §4

In another assay the target is HDAC9 (Homo sapiens (Human), UniProt Q9UKV0). Nature of the assay: HDAC9 enzymatic assay. The conditions noted are these: selectivity profile; read-out: HDAC Enzyme IC50, HDAC 9. The procedure:
as §1, §2, §3, §4

For a further assay, the target named is HDAC7 (Homo sapiens (Human), UniProt Q8WUI4). Nature of the assay: HDAC7 enzymatic assay. Conditions: selectivity profile; read-out: HDAC Enzyme IC50, HDAC 7. How it is done:
as §1, §2, §3, §4

A further assay has as its target HDAC8 (Homo sapiens (Human), UniProt Q9BY41). Description: HDAC8 enzymatic assay. The conditions noted are these: selectivity profile; read-out: HDAC Enzyme IC50, HDAC 8. The procedure:
as §1, §2, §3, §4

In a further assay the target is HDAC1 (Homo sapiens (Human), UniProt Q13547). Description: HDAC1 enzymatic assay. The essentials: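 HDAC1 activity was measured in duplicate 50 μl reactions containing 0.5 ng HDAC1, 10 uM of HDAC substrate, and test compound in buffer (50 mM Tris-HCl, pH 7.4, 137 mM NaCl, 2.7 mM KCl, 0.05% Tween 20, 5 μg BSA) with 1% DMSO, incubated 17 hours at room temperature. HDAC Developer was then added for 20 minutes and fluorescence read at 360/460 nm.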
HDAC1, sequence (Q13547 whole entry): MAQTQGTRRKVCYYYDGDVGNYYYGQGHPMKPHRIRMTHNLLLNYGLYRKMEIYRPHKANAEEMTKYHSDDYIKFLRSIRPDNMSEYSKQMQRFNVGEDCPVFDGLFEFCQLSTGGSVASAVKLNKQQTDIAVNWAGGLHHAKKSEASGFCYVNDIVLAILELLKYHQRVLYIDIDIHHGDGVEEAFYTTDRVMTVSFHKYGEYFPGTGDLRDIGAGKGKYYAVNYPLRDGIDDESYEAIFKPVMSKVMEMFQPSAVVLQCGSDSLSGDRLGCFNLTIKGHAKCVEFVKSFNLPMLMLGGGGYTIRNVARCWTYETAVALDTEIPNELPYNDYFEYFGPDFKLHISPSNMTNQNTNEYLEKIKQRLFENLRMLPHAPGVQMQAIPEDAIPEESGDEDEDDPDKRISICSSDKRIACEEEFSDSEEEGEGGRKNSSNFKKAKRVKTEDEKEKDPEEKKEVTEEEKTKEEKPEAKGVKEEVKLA

The target of a further assay is HDAC3/NCOR2 (Homo sapiens (Human), UniProt O15379). Description: HDAC3 enzymatic assay. Conditions: selectivity profile; read-out: HDAC Enzyme IC50, HDAC 3. How it is done:
as §1, §2, §3, §4

The target in a further assay is HDAC6 (Homo sapiens (Human), UniProt Q9UBN7). Description: HDAC6 enzymatic assay. In a few lines:
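Human HDAC6 activity was measured in duplicate 50 μl reactions holding 2 ng HDAC6, 10 uM of HDAC substrate and test compound in HDAC assay buffer (50 mM Tris-HCl, pH 7.4, 137 mM NaCl, 2.7 mM KCl, 0.05% Tween 20, 5 μg BSA) with 1% DMSO, for 17 hours at room temperature. HDAC Developer was added for 20 minutes before reading fluorescence at 360/460 nm.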

The next assay concerns the target HDAC11 (Homo sapiens (Human), UniProt Q96DB2). Nature of the assay: HDAC11 enzymatic assay. The conditions noted are these: selectivity profile; read-out: HDAC Enzyme IC50, HDAC 11. How it is done:
as §1, §2, §3, §4

The target in the next assay is HDAC5 (Homo sapiens (Human), UniProt Q9UQL6). Description: HDAC5 enzymatic assay. Conditions: selectivity profile; read-out: HDAC Enzyme IC50, HDAC 5. How it is done: as §1, §2, §3, §4
HDAC5, sequence (Q9UQL6 whole entry, species assumed): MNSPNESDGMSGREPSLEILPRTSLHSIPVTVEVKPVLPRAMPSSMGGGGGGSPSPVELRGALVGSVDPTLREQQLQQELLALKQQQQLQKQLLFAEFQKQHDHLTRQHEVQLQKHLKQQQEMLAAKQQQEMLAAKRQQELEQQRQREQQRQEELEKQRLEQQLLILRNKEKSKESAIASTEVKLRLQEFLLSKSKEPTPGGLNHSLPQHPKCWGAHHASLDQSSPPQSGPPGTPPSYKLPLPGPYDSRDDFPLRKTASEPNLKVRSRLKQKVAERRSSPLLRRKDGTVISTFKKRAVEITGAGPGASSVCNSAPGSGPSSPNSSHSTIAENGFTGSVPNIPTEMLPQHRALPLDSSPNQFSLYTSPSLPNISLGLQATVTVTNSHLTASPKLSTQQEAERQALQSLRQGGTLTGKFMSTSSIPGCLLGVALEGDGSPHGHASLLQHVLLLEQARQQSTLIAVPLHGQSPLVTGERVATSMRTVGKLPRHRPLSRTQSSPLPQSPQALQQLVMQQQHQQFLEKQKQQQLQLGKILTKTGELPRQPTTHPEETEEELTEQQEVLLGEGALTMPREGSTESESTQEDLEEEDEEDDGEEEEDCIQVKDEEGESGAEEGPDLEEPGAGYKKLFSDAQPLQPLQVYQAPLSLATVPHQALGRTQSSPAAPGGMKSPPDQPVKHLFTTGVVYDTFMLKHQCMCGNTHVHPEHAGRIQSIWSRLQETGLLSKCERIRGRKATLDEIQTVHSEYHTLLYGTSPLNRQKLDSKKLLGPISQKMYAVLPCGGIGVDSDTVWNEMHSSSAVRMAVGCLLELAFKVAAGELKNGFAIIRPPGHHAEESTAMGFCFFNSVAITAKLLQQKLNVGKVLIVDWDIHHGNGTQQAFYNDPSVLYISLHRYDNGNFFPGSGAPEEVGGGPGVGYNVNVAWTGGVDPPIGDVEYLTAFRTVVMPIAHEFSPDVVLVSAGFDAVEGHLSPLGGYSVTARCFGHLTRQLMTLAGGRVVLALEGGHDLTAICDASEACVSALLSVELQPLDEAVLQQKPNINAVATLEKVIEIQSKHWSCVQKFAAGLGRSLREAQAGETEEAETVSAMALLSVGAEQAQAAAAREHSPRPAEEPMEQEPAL
The mark [1] stands for this setting: selectivity profile, read-out: HDAC Enzyme IC50, HDAC 1.
The mark [2] stands for this setting: selectivity profile, read-out: HDAC Enzyme IC50, HDAC 6.

HDAC11, sequence (Q96DB2 whole entry, species assumed): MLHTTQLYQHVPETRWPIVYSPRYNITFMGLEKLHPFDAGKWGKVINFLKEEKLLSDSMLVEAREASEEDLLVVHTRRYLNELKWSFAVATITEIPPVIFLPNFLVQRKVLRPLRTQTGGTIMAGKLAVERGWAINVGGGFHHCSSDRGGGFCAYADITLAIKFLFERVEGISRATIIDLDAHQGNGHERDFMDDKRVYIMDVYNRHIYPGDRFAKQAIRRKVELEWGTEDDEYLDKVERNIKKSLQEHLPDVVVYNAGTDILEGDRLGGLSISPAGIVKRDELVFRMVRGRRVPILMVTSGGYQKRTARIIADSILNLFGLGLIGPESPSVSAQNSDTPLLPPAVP
HDAC2, sequence (Q92769 whole entry, species assumed): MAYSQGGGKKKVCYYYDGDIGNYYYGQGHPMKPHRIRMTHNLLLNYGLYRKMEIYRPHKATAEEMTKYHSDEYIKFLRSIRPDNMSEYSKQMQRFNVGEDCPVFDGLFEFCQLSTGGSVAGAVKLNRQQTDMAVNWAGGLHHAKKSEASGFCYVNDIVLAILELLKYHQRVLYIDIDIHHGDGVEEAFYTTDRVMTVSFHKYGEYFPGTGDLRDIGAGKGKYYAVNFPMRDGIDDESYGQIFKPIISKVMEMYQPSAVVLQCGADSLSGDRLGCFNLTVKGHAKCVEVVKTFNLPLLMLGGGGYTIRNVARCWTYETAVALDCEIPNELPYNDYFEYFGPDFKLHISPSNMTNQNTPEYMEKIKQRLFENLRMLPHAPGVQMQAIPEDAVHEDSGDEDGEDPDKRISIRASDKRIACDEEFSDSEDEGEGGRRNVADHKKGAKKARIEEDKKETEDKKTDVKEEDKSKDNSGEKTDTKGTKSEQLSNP
HDAC4, sequence (P56524 whole entry, species assumed): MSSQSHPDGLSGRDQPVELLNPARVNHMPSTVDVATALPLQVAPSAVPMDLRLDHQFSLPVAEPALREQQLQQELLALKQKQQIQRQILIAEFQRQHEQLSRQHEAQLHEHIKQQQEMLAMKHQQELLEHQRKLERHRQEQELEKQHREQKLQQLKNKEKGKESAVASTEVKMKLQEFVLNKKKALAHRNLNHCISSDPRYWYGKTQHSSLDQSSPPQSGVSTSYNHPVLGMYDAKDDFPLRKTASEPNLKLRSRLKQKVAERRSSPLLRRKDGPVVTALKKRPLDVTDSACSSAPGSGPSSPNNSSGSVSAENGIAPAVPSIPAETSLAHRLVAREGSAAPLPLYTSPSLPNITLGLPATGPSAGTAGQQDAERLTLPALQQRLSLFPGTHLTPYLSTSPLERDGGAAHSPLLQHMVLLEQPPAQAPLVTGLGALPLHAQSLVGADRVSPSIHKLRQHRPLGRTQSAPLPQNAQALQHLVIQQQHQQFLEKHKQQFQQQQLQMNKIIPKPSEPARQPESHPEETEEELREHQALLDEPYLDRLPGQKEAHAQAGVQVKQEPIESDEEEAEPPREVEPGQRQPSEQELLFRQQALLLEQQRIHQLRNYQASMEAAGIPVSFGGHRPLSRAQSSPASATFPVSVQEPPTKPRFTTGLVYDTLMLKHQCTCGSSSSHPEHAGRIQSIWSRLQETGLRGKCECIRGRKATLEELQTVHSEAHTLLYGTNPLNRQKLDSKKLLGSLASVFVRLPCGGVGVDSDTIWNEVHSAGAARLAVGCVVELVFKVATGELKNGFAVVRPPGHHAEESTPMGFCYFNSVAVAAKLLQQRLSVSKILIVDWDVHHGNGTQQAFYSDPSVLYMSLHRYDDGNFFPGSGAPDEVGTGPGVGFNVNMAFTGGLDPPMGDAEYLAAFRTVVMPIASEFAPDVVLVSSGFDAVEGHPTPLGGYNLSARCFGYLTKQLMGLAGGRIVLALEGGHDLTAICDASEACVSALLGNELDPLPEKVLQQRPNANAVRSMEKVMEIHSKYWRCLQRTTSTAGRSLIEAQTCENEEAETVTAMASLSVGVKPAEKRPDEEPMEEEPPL
HDAC10, sequence (Q969S8 whole entry, species assumed): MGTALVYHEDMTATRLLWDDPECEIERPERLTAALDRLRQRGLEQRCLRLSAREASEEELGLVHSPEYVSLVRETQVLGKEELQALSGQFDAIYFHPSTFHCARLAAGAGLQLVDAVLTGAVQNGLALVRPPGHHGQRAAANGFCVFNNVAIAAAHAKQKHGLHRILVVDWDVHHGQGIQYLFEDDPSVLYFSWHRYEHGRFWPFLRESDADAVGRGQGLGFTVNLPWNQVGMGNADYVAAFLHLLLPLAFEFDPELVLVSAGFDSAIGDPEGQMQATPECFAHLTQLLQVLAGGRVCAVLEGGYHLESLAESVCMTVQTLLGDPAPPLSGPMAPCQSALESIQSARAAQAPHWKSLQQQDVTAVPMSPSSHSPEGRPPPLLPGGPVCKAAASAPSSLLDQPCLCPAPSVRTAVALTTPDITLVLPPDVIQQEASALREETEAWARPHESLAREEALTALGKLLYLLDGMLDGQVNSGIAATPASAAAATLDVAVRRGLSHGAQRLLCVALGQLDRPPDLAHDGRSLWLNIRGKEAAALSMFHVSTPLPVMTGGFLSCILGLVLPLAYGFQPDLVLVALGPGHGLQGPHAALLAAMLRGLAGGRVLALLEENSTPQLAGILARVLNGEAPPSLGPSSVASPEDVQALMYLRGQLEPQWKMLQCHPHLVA
HDAC8, sequence (Q9BY41 whole entry, species assumed): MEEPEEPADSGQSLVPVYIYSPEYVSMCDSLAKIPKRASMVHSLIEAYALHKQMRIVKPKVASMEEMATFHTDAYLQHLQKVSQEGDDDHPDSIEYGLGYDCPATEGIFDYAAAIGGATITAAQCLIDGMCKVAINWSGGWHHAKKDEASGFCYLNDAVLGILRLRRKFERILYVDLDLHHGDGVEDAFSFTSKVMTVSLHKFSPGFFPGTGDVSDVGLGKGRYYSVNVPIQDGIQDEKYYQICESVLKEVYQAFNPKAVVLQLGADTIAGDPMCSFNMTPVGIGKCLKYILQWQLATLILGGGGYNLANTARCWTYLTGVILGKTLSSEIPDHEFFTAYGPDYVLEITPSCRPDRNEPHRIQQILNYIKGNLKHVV

Turning to `CS(=O)(=O)CC(Nc1ncc(-c2nnc(C(F)F)o2)cn1)c1ccc(F)cc1` (single isomer, unassigned) [161(+), 5-(5-(difluoromethyl)-1,3,4-oxadiazol-2-yl)-N-(1-(4-fluorophenyl)-2-(methylsulfonyl)ethyl)pyrimidin-2-amine], the IC50 on HDAC2, on HDAC4, at HDAC10, at HDAC9, at HDAC7 and at HDAC8 was greater than 30 µM each time. The IC50 (in general, the concentration at which inhibition is half-maximal) was greater than 30 µM at HDAC1 (read-out: Human HDAC1 IC50); greater than 30 µM at HDAC1 (setting [1]); greater than 30 µM on HDAC3/NCOR2; 0.043 µM on HDAC6 (read-out: Human HDAC6 IC50); 0.043 µM on HDAC6 (setting [2]); greater than 30 µM at HDAC11. On HDAC5, the IC50 is greater than 30 µM.

Take `O=C(NCC(Nc1ncc(-c2nnc(C(F)F)o2)cn1)c1ccc(F)cc1)C1CC1` (single isomer, unassigned) [168(+), N-(2-((5-(5-(difluoromethyl)-1,3,4-oxadiazol-2-yl)pyrimidin-2-yl)amino)-2-(4-fluorophenyl)ethyl)cyclopropanecarboxamide]: the IC50 on HDAC2 is greater than 30 µM; at HDAC4 it was 13.8 µM; at HDAC10, greater than 30 µM; on HDAC9, greater than 30 µM; at HDAC7, 24.4 µM; on HDAC8 it was greater than 30 µM. Moreover, the IC50 on HDAC1 (read-out: Human HDAC1 IC50) was greater than 30 µM; at HDAC1 (setting [1]) it was greater than 30 µM; at HDAC3/NCOR2, greater than 30 µM; at HDAC6 (read-out: Human HDAC6 IC50), 0.029 µM; on HDAC6 (setting [2]), 0.029 µM; at HDAC11 it was greater than 30 µM. The concentration for half-maximal inhibition (IC50) on HDAC5 was greater than 30 µM.

Consider `FC(F)c1nnc(-c2cnc(NC3(c4ccccc4)CC3)nc2)o1` [Example 4, 5-(5-(difluoromethyl)-1,3,4-oxadiazol-2-yl)-N-(1-phenylcyclopropyl)pyrimidin-2-amine], for which the IC50 at HDAC2, at HDAC4, on HDAC10, on HDAC9, at HDAC7 and at HDAC8 was greater than 30 µM in each case. The concentration for half-maximal inhibition (IC50) is greater than 30 µM at HDAC1 (read-out: Human HDAC1 IC50); greater than 30 µM at HDAC1 (setting [1]); greater than 30 µM at HDAC3/NCOR2; 0.023 µM at HDAC6 (read-out: Human HDAC6 IC50); 0.023 µM on HDAC6 (setting [2]); greater than 30 µM on HDAC11. For the same compound, the half-maximal inhibitory concentration (IC50) at HDAC5 is greater than 30 µM.

For the compound `Fc1ccc(C2(Nc3ncc(-c4nnc(C(F)F)o4)cn3)CC2)cc1` [Example 5, 5-(5-(difluoromethyl)-1,3,4-oxadiazol-2-yl)-N-(1-(4-fluorophenyl)cyclopropyl)pyrimidin-2-amine], the IC50 on HDAC2, on HDAC4, at HDAC10, at HDAC9, at HDAC7 and at HDAC8 was greater than 30 µM throughout. Also, the IC50 on HDAC1 (read-out: Human HDAC1 IC50) was greater than 100 µM; on HDAC1 (setting [1]), greater than 100 µM; on HDAC3/NCOR2, greater than 30 µM; on HDAC6 (read-out: Human HDAC6 IC50), 0.034 µM; on HDAC6 (setting [2]) it was 0.034 µM; at HDAC11, greater than 30 µM. On HDAC5, the IC50 is greater than 30 µM.

As for `CC(C)(Nc1ncc(-c2nnc(C(F)F)o2)cn1)c1ccc(F)cc1` [Example 9, 5-(5-(difluoromethyl)-1,3,4-oxadiazol-2-yl)-N-(2-(4-fluorophenyl)propan-2-yl)pyrimidin-2-amine], the IC50 at HDAC2, on HDAC4, on HDAC10, on HDAC9, on HDAC7 and on HDAC8 was greater than 30 µM in each case. For the same compound, the IC50 on HDAC1 (read-out: Human HDAC1 IC50) was greater than 30 µM; on HDAC1 (setting [1]) it was greater than 30 µM; on HDAC3/NCOR2, greater than 30 µM; at HDAC6 (read-out: Human HDAC6 IC50), 0.038 µM; at HDAC6 (setting [2]), 0.038 µM; at HDAC11, greater than 30 µM. In addition, the IC50 at HDAC5 was greater than 30 µM.

Consider `Fc1cccc(F)c1C1(Nc2ncc(-c3nnc(C(F)F)o3)cn2)CC1` [Example 11, 5-(5-(difluoromethyl)-1,3,4-oxadiazol-2-yl)-N-(1-(2,6-difluorophenyl)cyclopropyl)pyrimidin-2-amine], for which the IC50 at HDAC2, at HDAC4, on HDAC10, on HDAC9, at HDAC7 and on HDAC8 was greater than 30 µM throughout. Besides, the 50% inhibitory concentration (IC50) was greater than 100 µM at HDAC1 (read-out: Human HDAC1 IC50); greater than 100 µM on HDAC1 (setting [1]); greater than 30 µM on HDAC3/NCOR2; 0.006 µM at HDAC6 (read-out: Human HDAC6 IC50); 0.006 µM on HDAC6 (setting [2]); greater than 30 µM on HDAC11. The IC50 on HDAC5 was greater than 30 µM.

For `Fc1ccc(C(CC(F)(F)F)Nc2ncc(-c3nnc(C(F)F)o3)cn2)cc1` (centres unmarked) [Example 13, 5-(5-(difluoromethyl)-1,3,4-oxadiazol-2-yl)-N-(3,3,3-trifluoro-1-(4-fluorophenyl)propyl) pyrimidin-2-amine], the IC50 at HDAC2, on HDAC4, at HDAC10, on HDAC9, on HDAC7 and on HDAC8 was greater than 30 µM throughout. Further, the IC50 at HDAC1 (read-out: Human HDAC1 IC50) is greater than 30 µM; on HDAC1 (setting [1]), greater than 30 µM; on HDAC3/NCOR2, greater than 30 µM; at HDAC6 (read-out: Human HDAC6 IC50) it was 0.036 µM; on HDAC6 (setting [2]) it was 0.036 µM; at HDAC11, greater than 30 µM. Moreover, the IC50 at HDAC5 was greater than 30 µM.

As to `Fc1ccc(C2(Nc3ncc(-c4nnc(C(F)F)o4)cn3)CC2)c(Cl)c1` [Example 62, N-(1-(2-chloro-4-fluorophenyl)cyclopropyl)-5-(5-(difluoromethyl)-1,3,4-oxadiazol-2-yl)pyrimidin-2-amine], the IC50 at HDAC2, at HDAC4, on HDAC10, at HDAC9, on HDAC7 and on HDAC8 was greater than 30 µM each time. In addition, the IC50 at HDAC1 (read-out: Human HDAC1 IC50) was greater than 30 µM; on HDAC1 (setting [1]), greater than 30 µM; on HDAC3/NCOR2 it was greater than 30 µM; at HDAC6 (read-out: Human HDAC6 IC50) it was 0.008 µM; on HDAC6 (setting [2]), 0.008 µM; on HDAC11, greater than 30 µM. Moreover, on HDAC5, the IC50 was greater than 30 µM.

(Values after patent US10357493B2, “Metalloenzyme inhibitor compounds” (Selenity Therapeutics (Bermuda), Ltd., priority 2017, dated 2019).)
